Reference: patent JP2015013808A, “G2/m期停止及び細胞死を誘導するベンゾヒドラジド誘導体” (Kyushu University NUC, priority 2011, dated 2013)
Read-outs that look alike come from different tables or passages of the source.

Legend:
[1] = tested on: human cancer cells [ヒトがん細胞]; assay: Growth inhibition / cytotoxicity in cancer cell lines (summary over lines); assay type: cell-based; details: for anticancer activity / inhibitory effect on cancer cell lines (in words): 48 h, MTS; for cancer cell selectivity of growth inhibition and cytotoxicity (in words): cancer cells versus normal fibroblasts
[2] = tested on: HFF2/T cells (normal human fibroblast line immortalized by introduction of human telomerase) [HFF2/T細胞(ヒトテロメラーゼの導入により不死化した正常ヒト線維芽細胞株)]; assay: MTS growth inhibition assay, HFF2/T normal fibroblasts; assay type: cell-based; details: 48 h
[3] = tested on: human cancer cells [ヒトがん細胞]; assay: FACS cell cycle analysis (summary, cell line not specified); assay type: cell-based
[4] = tested on: HeLa cells (cervical cancer-derived cell line) [HeLa細胞(子宮頸癌由株細胞株)]; assay: MTS growth inhibition assay, HeLa; assay type: cell-based, human; details: 48 h
[5] = tested on: H1299 cells (lung cancer-derived cell line) [H1299細胞(肺がん由来細胞株)]; assay: MTS growth inhibition assay, H1299; assay type: cell-based, human; details: 48 h
[6] = tested on: T98G cells (glioblastoma-derived cell line) [T98G細胞(グリオブラストーマ由来細胞株)]; assay: MTS growth inhibition assay, T98G; assay type: cell-based, human; details: 48 h
T98G cells [T98G細胞] = assay: FACS cell cycle analysis, T98G; assay type: cell-based, human; details: 10 μM, 24 h
HFF2/T cells [HFF2/T細胞] = assay: FACS cell cycle analysis, HFF2/T normal fibroblasts; assay type: cell-based, human; details: 10 μM, 24 h
[7] = molecular target: T1, Cdt1-geminin binding [Cdt1-geminin結合] (Homo sapiens, UniProt O75496+Q9H211); assay: In vitro Cdt1-geminin binding inhibition assay (modified ELISA)
T1 construct: made in house
T1 sequence (Q9H211 1-546): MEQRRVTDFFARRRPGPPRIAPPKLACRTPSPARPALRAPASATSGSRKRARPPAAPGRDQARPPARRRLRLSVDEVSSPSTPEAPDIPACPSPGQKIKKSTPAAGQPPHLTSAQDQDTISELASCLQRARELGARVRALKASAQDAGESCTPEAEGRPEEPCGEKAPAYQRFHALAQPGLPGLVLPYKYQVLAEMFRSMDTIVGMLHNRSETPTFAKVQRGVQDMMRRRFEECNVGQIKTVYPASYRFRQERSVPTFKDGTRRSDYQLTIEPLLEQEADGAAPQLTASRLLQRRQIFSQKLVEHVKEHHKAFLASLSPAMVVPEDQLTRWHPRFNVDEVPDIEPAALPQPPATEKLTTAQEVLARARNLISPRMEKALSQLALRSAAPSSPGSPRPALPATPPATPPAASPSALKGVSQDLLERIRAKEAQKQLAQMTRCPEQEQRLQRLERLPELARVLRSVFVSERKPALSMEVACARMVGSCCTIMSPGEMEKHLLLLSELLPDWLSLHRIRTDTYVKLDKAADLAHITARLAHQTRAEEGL
T1 sequence (O75496 1-209): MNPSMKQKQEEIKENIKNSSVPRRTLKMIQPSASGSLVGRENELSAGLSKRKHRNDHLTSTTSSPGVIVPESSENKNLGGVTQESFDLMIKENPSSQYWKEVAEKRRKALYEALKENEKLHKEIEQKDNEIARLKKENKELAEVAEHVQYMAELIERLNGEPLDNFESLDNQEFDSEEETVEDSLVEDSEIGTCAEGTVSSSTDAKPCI

In the case of `CCn1c2ccccc2c2cc(/C=N/NC(=O)c3ccc(O)cc3O)ccc21` [(E)-N'-((9-エチル-9H-カルバゾール-3-イル)メチレン)-2,4-ジヒドロキシベンゾヒドラジド], the “toxicity toward certain cancer cell lines (in words)” value ([1]; certain cancer cell lines, not specified) is reported as “ある種のがん細胞株に対する毒性が低下する”.

In the case of `CCn1c2ccccc2c2cc(/C=N/NC(=O)c3ccccc3C)ccc21` [HND-007, (E)-N'-((9-Ethyl-9H-carbazol-3-yl)methylene)-2-methylbenzohydrazide], the “growth inhibition / toxicity toward normal fibroblasts or normal cells (in words)” value [2] is reported as “正常線維芽細胞に対しても高い毒性を示す”, the “growth inhibition / toxicity toward normal fibroblasts or normal cells (in words)” value ([2]; listed as 2- methyl体) is reported as “正常細胞に対しても高い毒性を示す場合がある” and the “anticancer activity / inhibitory effect on cancer cell lines (in words)” value (from here on “anticancer activity / inhibitory effect”) ([1]; listed as 2- methyl体) is reported as “がん細胞株に対する抑制効果を高める”. The “anticancer activity / inhibitory effect” value ([1]; listed as (E)-N'-((9-エチル-9H-カルバゾール-3-イル)メチレン)-2-メチルベンゾヒドラジド) was “殺細胞性が高い”, the “cancer cell selectivity of growth inhibition and cytotoxicity (in words)” value [1] was “選択性は低く” and the “cell cycle phase inhibited” value [3] was “主にM期の進行阻害を行っているものと予想される”.

In the case of `CCn1c2ccccc2c2cc(/C=N/NC(=O)c3ccccc3I)ccc21` [NP-10, (E)-N'-((9-Ethyl-9H-carbazol-3-yl)methylene)-2-iodobenzohydrazide], the “50% growth inhibitory concentration” value [4] is reported as “数”, the “50% growth inhibitory concentration” value [5] is reported as “数” and the “50% growth inhibitory concentration” value [6] is reported as “数”. The “concentration needed for 50% growth inhibition of HFF2/T relative to HeLa” value ([2]; HFF2/T versus HeLa) was ~10 fold, the “growth inhibition / toxicity toward normal fibroblasts or normal cells (in words)” value [2] was “正常線維芽細胞に対する増殖抑制効果は低い” and the “effect on cell cycle” value (T98G cells [T98G細胞]) was “主にS期で停止”. The “effect on cell cycle progression” value (HFF2/T cells [HFF2/T細胞]) was “細胞周期進行に影響を与えなかった”, the “effect on cell cycle progression” value (HFF2/T cells [HFF2/T細胞]; listed as 2-iodo体) was “正常細胞の細胞周期の進行に影響を与えず” and the “Cdt1-geminin binding inhibitory activity (in words)” value [7] was “Cdt1-geminin結合の阻害活性は示さない”. The “cancer cell selectivity of growth inhibition and cytotoxicity (in words)” value [1] was “がん細胞選択的に細胞増殖を阻害し、細胞毒性を発揮した”, the “cancer cell selectivity of growth inhibition and cytotoxicity (in words)” value ([1]; listed as 2-iodo体) was “がん細胞選択的に細胞増殖を阻害し、細胞毒性を発揮する” and the “cancer cell selectivity of growth inhibition and cytotoxicity (in words)” value ([1]; listed as 2-ヨード体) was “がん細胞に対して選択的に毒性を発揮する”. The “concentration that inhibits growth of human cancer cells” value ([1]; human cancer cells, lines not specified) was “数”, the cell death ([1]; human cancer cells, several μM) was “細胞死” and the “cell cycle phase inhibited” value [3] was “主にM期の進行阻害”. The “cell cycle phase inhibited” value ([3]; listed as 2-iodo体) was “主にM期の進行阻害”.

In the case of `CCn1c2ccccc2c2cc(/C=N/NC(=O)c3cccc(I)c3)ccc21` [NP-13, (E)-N'-((9-Ethyl-9H-carbazol-3-yl)methylene)-3-iodobenzohydrazide], the “anticancer activity / inhibitory effect” value [1] is reported as “抗がん活性を失ってしまう” and the “anticancer activity / inhibitory effect” value ([1]; listed as 3-iodo体) is reported as “抗がん活性が比較的低く”.

`CCn1c2ccccc2c2cc(/C=N/NC(=O)c3ccc(I)cc3)ccc21` [NP-14, (E)-N'-((9-Ethyl-9H-carbazol-3-yl)methylene)-4-iodobenzohydrazide] was tested, and the “growth inhibition / toxicity toward normal fibroblasts or normal cells (in words)” value [2] was “正常線維芽細胞に対しても高い毒性を示す”, the “growth inhibition / toxicity toward normal fibroblasts or normal cells (in words)” value ([2]; listed as 4-iodo体) was “正常線維芽細胞に対しても高い毒性を示しうる” and the “Cdt1-geminin binding inhibitory activity (in words)” value ([7]; listed as 4-iodo体) was “Cdt1-gemininの試験管内での結合を阻害しうる”. The “Cdt1-geminin binding inhibitory activity (in words)” value ([7]; listed as 4-ヨード体) was “Cdt1-geminin結合阻害活性を持ち”, the IC50 ([7]; read-out: 50% binding inhibitory concentration, Cdt1-geminin) was ~40 µM and the “anticancer activity / inhibitory effect” value [1] was “NP-10と同等あるいはより高い抗がん活性を示す”. For the same compound, the “anticancer activity / inhibitory effect” value ([1]; listed as 4-iodo体) was 2-iodo体と同等、あるいはより高い抗がん活性を示す, the “anticancer activity / inhibitory effect” value ([1]; listed as 4-ヨード体) was “抗がん活性も示した” and the “cancer cell selectivity of growth inhibition and cytotoxicity (in words)” value [1] was “がん細胞選択性は低下していた”.

For `CCn1c2ccccc2c2cc(C=O)ccc21` [Y-R1, N-ethylcarbazole-3-carboxaldehyde, reference compound], the “cancer cell selectivity of growth inhibition and cytotoxicity (in words)” value [1] was “そのような効果は認められなかった”.

For `NNC(=O)c1ccccc1I` [Y-R2, 2-iodobenzohydrazide, reference compound], the “cancer cell selectivity of growth inhibition and cytotoxicity (in words)” value [1] was “そのような効果は認められなかった”.
